Experimental data as given in article PMC10269487, “Plasmodium Parasite Malate-Quinone Oxidoreductase Functionally Complements a Yeast Deletion Mutant of Mitochondrial Malate Dehydrogenase” (Microbiology Spectrum, 2023).

Legend:
[1] = target: T1, malate-quinone oxidoreductase (PfMQO) (Plasmodium falciparum, UniProt C6KT09); assay: malate:dUQ/DCIP reductase activity in mitochondrial fraction of PfMQO-expressing yeast, with ΔMdh1 as negative control; format: biochemical
T1 construct: gene PF3D7_0616800; native full-length PfMQO from codon-optimized cDNA, expressed in ΔMdh1 yeast mitochondria
T1 sequence (C6KT09 1-521): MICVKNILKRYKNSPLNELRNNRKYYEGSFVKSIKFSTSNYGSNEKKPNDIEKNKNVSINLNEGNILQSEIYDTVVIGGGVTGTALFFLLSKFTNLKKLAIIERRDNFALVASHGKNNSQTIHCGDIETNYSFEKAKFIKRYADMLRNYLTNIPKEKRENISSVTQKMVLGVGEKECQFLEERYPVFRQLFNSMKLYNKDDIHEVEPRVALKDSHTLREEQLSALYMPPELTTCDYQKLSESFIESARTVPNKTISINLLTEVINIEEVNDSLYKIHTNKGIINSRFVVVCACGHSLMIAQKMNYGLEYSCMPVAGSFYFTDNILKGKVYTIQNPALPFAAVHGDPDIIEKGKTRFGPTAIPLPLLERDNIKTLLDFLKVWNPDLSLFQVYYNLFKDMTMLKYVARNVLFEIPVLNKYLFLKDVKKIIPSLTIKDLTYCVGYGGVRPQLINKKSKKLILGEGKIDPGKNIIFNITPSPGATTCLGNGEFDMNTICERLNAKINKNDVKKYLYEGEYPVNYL

[2] = target: T2, yeast succinate dehydrogenase (Saccharomyces cerevisiae, UniProt P21801+P33421+P37298+Q00711); assay: inhibition of yeast succinate dehydrogenase activity (Fig. S2); format: cell-based
T2 construct: gene SDH1
T2 sequence (Q00711 29-640): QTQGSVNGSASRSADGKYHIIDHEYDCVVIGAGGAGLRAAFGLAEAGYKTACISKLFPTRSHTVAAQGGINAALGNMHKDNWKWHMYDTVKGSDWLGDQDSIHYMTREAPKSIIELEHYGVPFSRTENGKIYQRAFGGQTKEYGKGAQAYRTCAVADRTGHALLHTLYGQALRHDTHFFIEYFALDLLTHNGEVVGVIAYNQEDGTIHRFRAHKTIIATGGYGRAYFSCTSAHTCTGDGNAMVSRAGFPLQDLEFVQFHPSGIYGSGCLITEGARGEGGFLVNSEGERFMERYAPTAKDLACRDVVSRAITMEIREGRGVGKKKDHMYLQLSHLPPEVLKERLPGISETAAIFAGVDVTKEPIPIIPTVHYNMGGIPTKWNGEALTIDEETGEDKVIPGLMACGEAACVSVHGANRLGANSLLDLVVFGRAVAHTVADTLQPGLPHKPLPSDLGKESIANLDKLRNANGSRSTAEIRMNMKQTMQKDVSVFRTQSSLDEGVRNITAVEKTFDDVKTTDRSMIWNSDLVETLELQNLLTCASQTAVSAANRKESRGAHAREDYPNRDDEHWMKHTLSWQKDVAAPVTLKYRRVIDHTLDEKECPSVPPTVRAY
T2 sequence (P21801 21-266): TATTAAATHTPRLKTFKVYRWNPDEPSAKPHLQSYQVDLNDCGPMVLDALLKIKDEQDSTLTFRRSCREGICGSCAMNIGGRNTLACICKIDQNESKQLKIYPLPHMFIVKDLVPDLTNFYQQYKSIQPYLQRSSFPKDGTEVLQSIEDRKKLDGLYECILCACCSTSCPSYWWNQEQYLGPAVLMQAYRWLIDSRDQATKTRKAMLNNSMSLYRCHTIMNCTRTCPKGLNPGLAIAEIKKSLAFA
T2 sequence (P33421 51-198): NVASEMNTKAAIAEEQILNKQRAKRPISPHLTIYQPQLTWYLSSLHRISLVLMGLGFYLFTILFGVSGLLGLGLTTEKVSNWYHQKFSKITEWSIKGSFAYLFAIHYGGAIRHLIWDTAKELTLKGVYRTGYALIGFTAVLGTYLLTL
T2 sequence (P37298 32-181): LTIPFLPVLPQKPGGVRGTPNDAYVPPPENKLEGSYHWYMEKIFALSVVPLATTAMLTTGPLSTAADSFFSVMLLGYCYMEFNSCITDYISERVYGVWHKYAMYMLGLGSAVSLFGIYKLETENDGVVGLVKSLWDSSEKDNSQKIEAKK

CC(C)=CCC/C(C)=C/CC/C(C)=C/Cc1c(O)c2ccccc2oc1=O [ferulenol]
malate:dUQ/DCIP reductase activity in mitochondrial fraction of PfMQO-expressing [1]: almost completely suppressed by 1
IC50 [2]: ~100 nM
